{
  "source": "patent US20140134735A1",
  "about": "“Plant Cell Differentiation Promoter” (SHISEIDO COMPANY, LTD., priority 2011, published 2014)",
  "key": {"[1]": {"test_system": "Peucedanum japonicum greening tissue masses", "experiment": "Effect of KODA on differentiation from callus (greening tissue masses) in Peucedanum japonicum", "type": "cell-based", "settings": "1 μM KODA immersion", "description": "Peucedanum japonicum seeds from Yonaguni Island in Okinawa Prefecture were planted in artificial soil (Metro-Mix 360, Sun Grow Horticulture Canada Ltd.) and allowed to germinate under conditions of 20° C. and a 12-hour light-dark cycle. Two months later, the seedling plants were taken out, only the above ground portion was washed well with water, and after disinfecting with 70% alcohol (10 seconds) and a 10-fold dilution of sodium hypochlorite (7 minutes), the seedling plants were rinsed four times with pure water. The petiols were cut out and a cut measuring about 5 mm in length was aseptically made therein followed by planting in MS medium (Wako Pure Chemical Industries, solidified with 0.7% agar) containing 2,4-dichlorophenoxyacetic acid (0.022 mg/L) and kinetin (10.75 mg/L) solidified with 0.7% agar. The petiols were cultured for 2 months under conditions of 25° C. and a light-dark cycle of 12 hours to grow greening tissue masses containing incomplete leaf tissue. Two months later, the greening tissue masses were immersed in 1 μM KODA (KODA treatment group) or water (control group), and placed on MS medium (solidified with 0.7% agar) to which benzyladenine (BA) was added to a concentration of 2 ppm with indoleacetic acid (IAA) to a concentration of 0.1 ppm, 0.5 ppm or 1 ppm. As can be understood from the table, although a large number of differentiated greening plant bodies were obtained from greening tissue masses immersed in KODA, only a small number of differentiated plant bodies were obtained in the control group (water) in the case of 1.0 ppm indoleacetic acid+2.0 ppm benzyladenine."}, "[2]": {"test_system": "Spathiphyllum embryogenic calluses", "experiment": "Effect of KODA treatment time on differentiation from Spathiphyllum callus to adventitious embryo and germinants", "type": "cell-based", "settings": "for Dehydrated adventitious embryo weight per flask: embryos recovered 6 weeks after planting in differentiation medium", "description": "Cultured seedlings subcultured under conditions of 25° C. in a dark location (photosynthetic photon flux density: 5.7 μmole/m^2/sec, day length: 16 hours) in a solid medium obtained by adding 3% sucrose and 0.8% agar (Wako Pure Chemical Industries, Tokyo, Japan) to MS (Murashige and Skoog) medium placed in a flat box (internal volume: 300 ml) manufactured by Asahi Techno Glass followed by adjusting the pH to 5.8 were used as cultured Spathiphyllum seedlings (variety: Double Take).\nSucrose (3%), 2,4-dichlorophenoxyacetic acid (4 ppm), benzyladenine (BA) (0.2 ppm), casein acid hydrolysate (100 ppm) and 5 mM 2-morpholinoethanesulfonic acid monohydrate (MES) were added to MS medium solidified with 0.8% agar to obtain a medium for callus induction and growth (to be referred to as “subculture medium”, pH 5.8). Leaf sheaths were collected from the cultured seedlings during week 4 of subculturing by peeling from the stump and using a roughly 2 cm section containing the peeled portion (leaf sheath base) as an explant. The explants were then planted in a flat box containing the subculture medium (50 ml). When the seedlings were cultured for 8 weeks in a dark location at 25° C., calluses were induced at the peeled portions of the planted seedlings. Embryogenic calluses were selected by subculturing these calluses in 0.2 g/container each of subculture medium and culturing for 1 month. The embryogenic calluses were able to be maintained for 2 years while retaining adventitious embryo induction potency by subculturing to the subculture medium every 4 weeks.\n0.05 g aliquots of the embryonic calluses were planted in 500 ml Erlenmeyer flasks containing 160 ml of MS liquid medium containing sucrose (1%), fructose (1.1%), BA (0.1 ppm) and MES (5 mM) (pH 5.8, to be referred to as “differentiation medium”), followed by shake culturing (80 rpm) for 6 weeks at 25° C. in a dark location (day length: 16 hours, synthetic photon flux density: 22.8 μmole/m^2/sec) to obtain adventitious embryos. 0.2 g aliquots of these adventitious embryos were implanted in MS medium containing sucrose (3%) and obtained by solidifying with agar (0.8%) (pH 5.8, to be referred to as “germination medium”) followed by culturing for 8 weeks at 25° C. in a dark location (day length: 16 hours, photosynthetic photon flux density: 5.7 μmole/m^2/sec) to cause the adventitious embryos to germinate and obtain complete plants.\nEmbryogenic calluses subcultured in subculture medium were subcultured in fresh subculture medium followed by dropping a 3 ppm aqueous solution of KODA onto the calluses after 1 week (7 days), 2 weeks (14 days) or 3 weeks ([…]). The cultured calluses were planted in liquid differentiation medium 3 weeks after the start of subculturing, and the differentiated adventitious embryos were recovered 6 weeks later (FIG. 1), dehydrated and weighed after dehydrating. The adventitious embryos were then planted in germination medium and the numbers of resulting germinants were counted. The number of germinants per 1 g of dehydrated adventitious embryos was calculated from the measurement results (FIG. 2). […] The effect of KODA on inducing adventitious embryos in calluses was therefore thought to be specific to the time at which it is applied."}, "tobacco callus": {"test_system": "tobacco callus", "experiment": "Effect of KODA on differentiation from tobacco callus", "type": "cell-based, Nicotiana tabacum", "settings": "100 μM KODA immersion", "description": "After washing tobacco (Nicotiana tabacum) seeds with 70% ethanol, the surfaces of the seeds were sterilized for 3 minutes with 5% sodium hypochlorite and 0.05% Tween 20 followed by washing 5 times with sterilized water. After washing, the seeds were immersed in an aqueous KODA solution (100 μM) followed by planting the washed seeds on solid MS medium (Wako Pure Chemical Industries) containing 3% sucrose, 0.8% agar (Wako Pure Chemical Industries) and 2,4-dichlorophenoxyacetic acid (Kanto Chemical, 3 ppm) with kinetin (Nakarai Tesque, 0.1 ppm) and adjusted to pH 5.7 to induce calluses for 3 weeks under conditions of 25° C. and a light-dark cycle of 16 hours.\nThe above ground portions of the tobacco seedlings that underwent callus induction were removed, and only the root portions in which calluses were present were treated by immersing in 100 μM KODA (KODA treatment group) or water (control group) followed by inducing differentiation of the above ground portions under conditions of 25° C. and a light-dark cycle of 16 hours in solid differentiation medium obtained by adding 3% sucrose, 0.8% agar (Wako Pure Chemical Industries), […] (Nacalai Tesque, 0.2 ppm) and 6-benzyladenine (Nacalai Tesque, 2 ppm) to MS medium contained in plastic Petri dishes and adjusting to pH 5.7. Culturing in the differentiation medium was carried out by transferring to fresh differentiation medium after culturing for 2 weeks, namely for a total of 4 weeks. The resulting above ground portions were excised with a scalpel. The excised above ground portions were immersed in 100 μM aqueous KODA solution (KODA treatment group) or water (control group) followed by planting it in MS medium (100 mL) contained in culture bottles (CB-3, As One), which is prepared by adding sucrose (3%) to MS medium, and adjusting pH to 5.7, and is solidified with 0.8% agar, and then cultured for 4 weeks under conditions of 25° C. and light-dark cycle of 16 hours so as to differentiate below ground portions. […]"}, "[3]": {"test_system": "Spathiphyllum embryogenic calluses", "experiment": "Effect of KODA concentration on differentiation from Spathiphyllum callus to normally regenerated plant bodies", "type": "cell-based", "settings": "0.03, 0.3 or 3 ppm KODA dropped onto calluses; 8 weeks", "source_text": "Embryogenic calluses subcultured in subculture medium were planted in fresh differentiation medium followed by dropping a 0.03 ppm, 0.3 ppm or 3 ppm aqueous solution of KODA onto the calluses and recording the number of normally regenerated plant bodies 8 weeks later."}, "[4]": {"settings": "normal individuals, freeze-dried"}},
  "data": [
    {"smiles": "CC/C=C\\C/C=C\\CC(=O)C(O)CCCCCCCC(=O)O", "note": "(centres unmarked) [KODA, 9-hydroxy-10-oxo-12(Z),15(Z)-octadecadienoic acid]", "values": [
      {"measurement": "No. of redifferentiated greening plant bodies", "setting": "[1]; IAA (0.1 ppm) + BA (2.0 ppm)", "result": 29},
      {"measurement": "No. of redifferentiated greening plant bodies", "setting": "[1]; IAA (0.5 ppm) + BA (2.0 ppm)", "result": 20},
      {"measurement": "No. of redifferentiated greening plant bodies", "setting": "[1]; IAA (1.0 ppm) + BA (2.0 ppm)", "result": 27},
      {"measurement": "No. of germinants per flask", "setting": "[2]; 3 ppm KODA dropped 1 week after subculture", "result": 431},
      {"measurement": "No. of germinants per flask", "setting": "[2]; 3 ppm KODA dropped 2 weeks after subculture", "result": 702},
      {"measurement": "No. of germinants per flask", "setting": "[2]; 3 ppm KODA dropped 3 weeks after subculture", "result": 578},
      {"measurement": "Dehydrated adventitious embryo weight per flask", "setting": "[2]; 3 ppm aqueous KODA dropped onto calluses 1 week after subculture", "result": 7.1, "unit": "g"},
      {"measurement": "Dehydrated adventitious embryo weight per flask", "setting": "[2]; 3 ppm aqueous KODA dropped onto calluses 2 weeks after subculture", "result": 7.2, "unit": "g"},
      {"measurement": "Dehydrated adventitious embryo weight per flask", "setting": "[2]; 3 ppm aqueous KODA dropped onto calluses 3 weeks after subculture", "result": 6.8, "unit": "g"},
      {"measurement": "adventitious embryos recovered in comparison with control group (FIG. 1)", "setting": "[2]; KODA treatment group, after two weeks", "result": "A large number of adventitious embryos were recovered"},
      {"measurement": "normal individuals among the redifferentiated individuals", "setting": "tobacco callus; control group 30%", "result": 60, "unit": "%"},
      {"measurement": "dry weight of above ground portions versus control (FIG. 6)", "setting": "tobacco callus; [4]", "result": "no significant difference at a level of significance of 5%"},
      {"measurement": "dry weight of below ground portions versus control (FIG. 6)", "setting": "tobacco callus; [4]", "result": "a significant difference was confirmed at a level of significance of 5%"},
      {"measurement": "number of redifferentiated (normally regenerated) plant bodies versus control (FIG. 4)", "setting": "[3]", "result": "increase in comparison with a control group at each concentration"}
    ]}
  ]
}
